Assays:
[1] = test system: oil field isolated anaerobic SRB consortium; test: Biocidal efficacy against anaerobic bacteria: minimum biocide concentration for complete bacteria kill (MBC), 40° C., 24 hour; type: cell-based, anaerobic sulfate-reducing bacteria (SRB); conditions: for MBC (active ppm) Glutaraldehyde: glutaraldehyde concentration alone or in combination
Experimental: (§1) The synergy indexes reported in the following examples are calculated using the following equation: Synergy Index=Ca/CA+Cb/CB
(§2) where Ca: Concentration of biocide A required to achieve a certain level or complete bacterial kill when used in combination;
(§3) CA: Concentration of biocide A required to achieve a certain level or complete bacterial kill when used alone;
(§4) Cb: Concentration of biocide B required to achieve a certain level or complete bacterial kill when used in combination; and
(§5) CB: Concentration of biocide B required to achieve a certain level or complete bacterial kill when used alone.
(§6) A synergy index (SI) of 1 indicates additivity, a synergy index of less than 1 indicates synergy, and a synergy index greater than 1 indicates antagonism.
(§7) Various methods known to those skilled in the art can be used for evaluating biocidal efficacy. In the examples below, aliquots of the biocide-treated samples are removed at predetermined time points and the biocide concentration required to achieve a certain level or complete bacterial kill is determined by culture-based methods including serial dilution. In some examples, the method is based or adapted (e.g., for high temperature testing or for the presence of sulfide) from the methodology described in international patent publication WO 2009/039004, which is incorporated herein by reference.
Inside an anaerobic chamber, a deaerated sterile salt solution (3.1183 g of NaCl, 1.3082 mg of NaHCO3, 47.70 mg of KCl, 72.00 mg of CaCl2, 54.49 mg of MgSO4, 172.28 mg of Na2SO4, 43.92 mg of Na2CO3 in 1 L water) is contaminated with an oil field isolated anaerobic SRB consortium at final bacterial concentrations of 10^5-10^6 CFU/mL. Aliquots of this contaminated water are then treated with biocide solution (single or in combination) at various concentrations.

[2] = test system: oil field isolated anaerobic SRB consortium; test: Biocidal efficacy against anaerobic bacteria for high temperature and sulfide-rich conditions: lowest concentration for 99.9% bacterial reduction in 2 hours; type: cell-based, anaerobic sulfate-reducing bacteria (SRB); conditions: 80° C., 10 ppm sulfide ion; for Dosage required for 99.9% bacterial kill in 2 h (active ppm) Glutaraldehyde: glutaraldehyde concentration alone or in combination
Experimental: as §1, §2, §3, §4, §5, §6, §7
Inside an anaerobic chamber, biocide solutions (single or in combination) are prepared at various concentrations in a salt solution (3.1183 g of NaCl, 1.3082 mg of NaHCO3, 47.70 mg of KCl, 72.00 mg of CaCl2, 54.49 mg of MgSO4, 172.28 mg of Na2SO4, 43.92 mg of Na2CO3 in 1 L water). The biocide solutions are challenged with 10^4 to 10^5 CFU/mL of an oil field isolated anaerobic SRB consortium and 10 ppm sulfide ion. The mixtures are incubated at 80° C. under anaerobic conditions for 2 hours after which the biocidal efficacy against the field SRB consortium is evaluated. The biocidal efficacy is determined by selecting the lowest biocide concentration required to achieve at least a 99.9% bacterial reduction in 2 hours. Synergy index is then calculated.

[3] = glutaraldehyde/CTAC series, CTAC concentration alone or in combination
[4] = glutaraldehyde/HHT series, HHT concentration alone or in combination
[5] = glutaraldehyde/tris nitro series
[6] = glutaraldehyde/tris nitro series, tris nitro concentration alone or in combination

SMILES: ClC=CC[N+]12CN3CN(CN(C3)C1)C2 [CTAC, 1-(3-chloroallyl)-3,5,7-triaza-1-azoniaadamantane]
- MBC (active ppm) CTAC [1, 3]: 133.3 active ppm
- Dosage required for 99.9% bacterial kill in 2 h (active ppm) CTAC [2, 3]: 375.0 active ppm

SMILES: OCCN1CN(CCO)CN(CCO)C1 [HHT, hexahydro-1,3,5-tris(2-hydroxyethyl)-s-triazine]
- MBC (active ppm) HHT [1, 4]: 133.3 active ppm
- Dosage required for 99.9% bacterial kill in 2 h (active ppm) HHT [2, 4]: 125.0 active ppm

SMILES: O=CCCCC=O [glutaraldehyde]
- MBC (active ppm) Glutaraldehyde ([1]; glutaraldehyde/CTAC series): 5.3 active ppm
- MBC (active ppm) Glutaraldehyde ([1]; glutaraldehyde/HHT series): 4.0 active ppm
- MBC (active ppm) Glutaraldehyde [1, 5]: 4.0 active ppm
- Dosage required for 99.9% bacterial kill in 2 h (active ppm) Glutaraldehyde ([2]; glutaraldehyde/CTAC series): 8.7 active ppm
- Dosage required for 99.9% bacterial kill in 2 h (active ppm) Glutaraldehyde ([2]; glutaraldehyde/HHT series): 15.6 active ppm
- Dosage required for 99.9% bacterial kill in 2 h (active ppm) Glutaraldehyde [2, 5]: 22.5 active ppm

SMILES: O=[N+]([O-])C(CO)(CO)CO [tris nitro, tris(hydroxymethyl)nitromethane]
- MBC (active ppm) Tris Nitro [1, 6]: 44.4 active ppm
- Dosage required for 99.9% bacterial kill in 2 h (active ppm) Tris Nitro [2, 6]: 180.0 active ppm
